# Laboratory results reported in patent publication US7825090B2, “Use of ghrelin and unacylated ghrelin compositions for treating insulin resistance” (Alizé Pharma SAS, priority 2004, dated 2010).
# Entries after “also recorded” stand apart in the source; their conditions may differ. No end group written: not given here. *: point of attachment. Octanoyl = CCCCCCCC(=O)*
# Assays:
# [1] = Serum total and acylated ghrelin concentrations after i.v. bolus injection (radioimmunoassay); parameters: species or system human; conditions: in vivo, iv
# From the text: (§1) Eight male subjects with a pituitary insufficiency but otherwise healthy, were asked to participate (range 21-69 yrs (age 55±10; mean±standard error of mean or SEM)) and a body mass index of 29.4±2.8 (mean±SEM). […] All subjects were admitted at the Clinical Research Unit. No alcoholic beverages were allowed from the day prior to admission until the end of the study. Also, all subjects were asked to skip the administration of their GH replacement every night prior to each of the 5 admission days. All subjects gave their written informed consent to participate in the study, which had been approved the hospital's Ethical Committee.
# All subjects underwent the following five testing sessions, each after an overnight fast, in random order and at least 1 week apart: 1) placebo (saline 3 ml iv). 2) acylated ghrelin (Neosystem S.A.; Strasbourg, France; 1.0 μg/kg iv, using a bacterial filter system). […]
# Acylated and total ghrelin concentrations were measured, using a commercially available radioimmunoassay (Linco research Inc. Missouri, USA). […] The lowest level of ghrelin that can be detected by this assay is […] when using a 100 μl sample size. […]
# (§2) Differences between the several study days were calculated, using a Newman-Keuls Multiple Comparison one-way ANOVA test (GraphPad Prism 4 for Windows; GraphPad Inc. USA). […] Areas under the curve were calculated using the trapezoid rule.
# [2] = system: GH deficient subjects; experiment: Serum insulin concentrations after i.v. AG, UAG, AG+GH or AG+UAG, before and after a standard lunch; format: in vivo, human; conditions: for effect on serum insulin levels after a standard lunch: GH deficient subjects; for effect on serum insulin levels: first two hours after i.v. administration, before lunch, fasting
# From the text: as §1
# (§3) All subjects underwent the following five testing sessions, each after an overnight fast, in random order and at least 1 week apart: 1) placebo (saline 3 ml iv). 2) acylated ghrelin (Neosystem S.A.; Strasbourg, France; 1.0 μg/kg iv, using a bacterial filter system). 3) unacylated ghrelin (Neosystem S.A.; Strasbourg, France; 1.0 μg/kg iv, using a filter system). 4) acylated ghrelin (1.0 μg/kg iv) but this time after the normal GH replacement dose was administered 15 minutes before. 5) acylated ghrelin in combination with unacylated ghrelin (both 1.0 μg/kg iv, but via separate injection sites). All tests started in the morning at 09:30 am, 30′ after one or two indwelling catheters had been placed into an antecubital vein, kept patent by slow infusion of isotonic saline.
# (§4) This meal was taken by all subjects all tests days.
# (§5) Insulin was assessed with a radioimmunoassay (Medgenix Diagnostics, Brussels, Belgium; intra- and interassay coefficient of variation (CV) 13.7 and 8.0% respectively). Glucose was assessed with an automatic hexokinase method (Roche, Almere, The Netherlands). Free fatty acids were determined with an enzymatic […] method (Wako Chemicals GmbH, Neuss, Germany; intra- and interassay CV 1.1 and 4.1% respectively).
# (§6) Differences between the several study days were calculated, using a Newman-Keuls Multiple Comparison one-way ANOVA test (GraphPad Prism 4 for Windows; GraphPad Inc. USA). P-values <0.05 were considered significant. Areas under the curve were calculated using the trapezoid rule.
# [3] = system: GH deficient subjects; experiment: Serum glucose concentrations after i.v. AG, UAG, AG+GH or AG+UAG, before and after a standard lunch; format: in vivo, human; conditions: for effect on serum glucose levels after a standard lunch: GH deficient subjects; for effect on serum glucose levels: first two hours after i.v. administration, before lunch, fasting
# From the text: as §1, §3, §4, §5, §6
# [4] = system: GH deficient subjects; experiment: Serum free fatty acid concentrations after i.v. AG, UAG, AG+GH or AG+UAG, before and after a standard lunch; format: in vivo, human; conditions: compounds administered 2-6 hrs before
# From the text: as §1, with “Committee. […]” for “Committee.”
# as §5, §2
# [5] = system: GH deficient subjects; experiment: Insulin sensitivity judged from areas under the curve of glucose, insulin and FFA (FIG. 8, FIG. 9); format: in vivo, human
# From the text: Eight male subjects with a pituitary insufficiency but otherwise healthy, were asked to participate (range 21-69 yrs (age 55±10; mean±standard error of mean or SEM)) and a body mass index of 29.4±2.8 (mean±SEM). […] All subjects were admitted at the Clinical Research Unit. No alcoholic beverages were allowed from the day prior to admission until the end of the study. Also, all subjects were asked to skip the administration of their GH replacement every night prior to each of the 5 admission days. All subjects gave their written informed consent to participate in the study, which had been approved the hospital's Ethical Committee. […] Insulin was assessed with a radioimmunoassay (Medgenix Diagnostics, Brussels, Belgium; intra- and interassay coefficient of variation (CV) 13.7 and 8.0% respectively). Glucose was assessed with an automatic hexokinase method (Roche, Almere, The Netherlands). Free fatty acids were determined with an enzymatic […] method (Wako Chemicals GmbH, Neuss, Germany; intra- and interassay CV 1.1 and 4.1% respectively). Differences between the several study days were calculated, using a Newman-Keuls Multiple Comparison one-way ANOVA test (GraphPad Prism 4 for Windows; GraphPad Inc. USA). […] Areas under the curve were calculated using the trapezoid rule.
# [6] = system: cloned cells; conditions: cited from earlier work
# [7] = system: GH secretion; conditions: compared with Ghrelin-28; cited from earlier work
Compound,effect on unacylated ghrelin levels [1],effect on serum insulin levels after a standard lunch [2],effect on serum insulin levels [2],effect on serum glucose levels after a standard lunch [3],effect on serum glucose levels [3],effect on serum glucose levels ([3]; listed as acylated ghrelin),effect on serum FFA levels after a standard lunch [4],duration of decrease in insulin sensitivity after administration ([5]; after administration of acylated ghrelin),"effect on insulin sensitivity ([5]; period following lunch, AUC (FIG. 9))",effect on serum glucose levels ([3]; listed as unacylated ghrelin),Ca2+ fluxes [6],induction of GH secretion [7]
CCCCCCCC(=O)OC[C@H](NC(=O)[C@H](CO)NC(=O)CN)C(=O)N[C@@H](Cc1ccccc1)C(=O)N[C@@H](CC(C)C)C(=O)N[C@@H](CO)C(=O)N1CCC[C@H]1C(=O)N[C@@H](CCC(=O)O)C(=O)N[C@@H](Cc1cnc[nH]1)C(=O)N[C@@H](CCC(N)=O)C(=O)N[C@@H](CCCNC(=N)N)C(=O)N[C@H](C(=O)N[C@@H](CCC(N)=O)C(=O)N[C@@H](CCC(N)=O)C(=O)N[C@@H](CCCNC(=N)N)C(=O)N[C@@H](CCCCN)C(=O)N[C@@H](CCC(=O)O)C(=O)N[C@@H](CO)C(=O)N[C@@H](CCCCN)C(=O)N[C@@H](CCCCN)C(=O)N1CCC[C@H]1C(=O)N1CCC[C@H]1C(=O)N[C@@H](C)C(=O)N[C@@H](CCCCN)C(=O)N[C@@H](CC(C)C)C(=O)N[C@@H](CCC(N)=O)C(=O)N1CCC[C@H]1C(=O)N[C@@H](CCCNC(=N)N)C(=O)O)C(C)C [AG],induces an acute increase in unacylated ghrelin levels,increased insulin levels the most,immediately increases glucose and insulin levels,increase serum glucose levels significantly,induces a significant hyperglycemia,immediately increases glucose and insulin levels,"significantly increased FFA levels after lunch, compared to placebo",at least 6 hours,"decreases insulin sensitivity, compared to placebo",,,
CC(C)C[C@H](NC(=O)[C@H](CCCCN)NC(=O)[C@H](C)NC(=O)[C@@H]1CCCN1C(=O)[C@@H]1CCCN1C(=O)[C@H](CCCCN)NC(=O)[C@H](CCCCN)NC(=O)[C@H](CO)NC(=O)[C@H](CCC(=O)O)NC(=O)[C@H](CCCCN)NC(=O)[C@H](CCCNC(=N)N)NC(=O)[C@H](CCC(N)=O)NC(=O)[C@H](CCC(N)=O)NC(=O)[C@@H](NC(=O)[C@H](CCCNC(=N)N)NC(=O)[C@H](CCC(N)=O)NC(=O)[C@H](Cc1c[nH]cn1)NC(=O)[C@H](CCC(=O)O)NC(=O)[C@@H]1CCCN1C(=O)[C@H](CO)NC(=O)[C@H](CC(C)C)NC(=O)[C@H](Cc1ccccc1)NC(=O)[C@H](CO)NC(=O)[C@H](CO)NC(=O)CN)C(C)C)C(=O)N[C@@H](CCC(N)=O)C(=O)N1CCC[C@H]1C(=O)N[C@@H](CCCNC(=N)N)C(=O)O [UAG],,"increased insulin levels the most, followed UAG",This does not occur,increase serum glucose levels significantly; also recorded: increases serum glucose levels significantly more than AG,"to a lesser extent, UAG, induces a significant hyperglycemia",,could not be observed,,,This does not occur,,
Gly-Ser-[octanoyl]Ser-Phe-Leu-Ser-Pro-Glu-His-Gln-Arg-Val-Gln-Arg-Lys-Glu-Ser-Lys-Lys-Pro-Pro-Ala-Lys-Leu-Gln-Pro-Arg (GSS(Octanoyl)FLSPEHQRVQRKESKKPPAKLQPR; listed as Homo sapiens) [des Gln-14 ghrelin],,,,,,,,,,,elicits Ca^2+ fluxes in cloned cells,induces GH secretion with similar potency as Ghrelin-28
